From the supplement of paper PMC4862054

Tests used:
CAL-51 [1] = details: 72 h
How it was run: (§1)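 Breast cancer cell lines in 20 µl suspension were added to 384-well plates already holding compound at 5 concentrations, spaced in 10-fold steps across a compound-specific 10,000-fold range, and incubated for 72 h. CellTox Green fluorescence (485/520 nm) was read first to measure cell death, followed by CellTiter-Glo luminescence for viability after 10 min at room temperature. Each plate was normalised to 0.1 % DMSO and a positive kill control. EC50 values came from dose-response curve fits and were censored at the top concentration.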

CAL-148 [2] = test: normalised viability (% of control), CellTiter-Blue; higher = more viable cells (about 100 = DMSO control); details: incubation time: 72 h
Method: (§2)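 DSRT, CellTiter-Blue viability, 72 h incubation. Signal is normalised to DMSO and benzethonium chloride controls. Value is the normalised response at dose 9.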

CAL-51 [3] = test: as above; details: incubation time: 72 h
Method: as §2

CAL-85-1 [4] = test: as above; details: incubation time: 72 h
Method: as §2

DU-4475 [5] = test: as above; details: incubation time: 72 h
Method: as §2

HDQ-P1 [6] = test: as above; details: incubation time: 72 h
Method: as §2

MDA-MB-453 [7] = test: as above; details: incubation time: 72 h
Method: as §2

BT-474 [8] = details: 72 h
How it was run: as §1

MDA-MB-468 [9] = details: 72 h
How it was run: as §1

BT-474 [10] = test: normalised response (% of control), CellTiter-Glo; higher = more viable cells (100 = DMSO, 0 = benzethonium chloride kill control); details: incubation time: 72 h
How it was run: (§3)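 CellTox Green fluorescence (485/520 nm) and, after 10 min at room temperature, CellTiter-Glo luminescence were read from breast cancer cell lines incubated 72 h in 384-well plates. Cells were seeded as 20 µl suspension onto compound at 5 concentrations in 10-fold steps over a 10,000-fold range chosen per compound. Each plate was normalised to 0.1 % DMSO (100) and a positive kill control (0). Values are normalised signals, one per concentration.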

BT-549 = test: as above; details: incubation time: 72 h
How it was run: as §3

CAL-120 = test: as above; details: incubation time: 72 h
How it was run: as §3

CAL-148 [11] = test: as above; details: incubation time: 72 h
How it was run: as §3

CAL-51 [12] = test: as above; details: incubation time: 72 h
How it was run: as §3

CAL-85-1 [13] = test: as above; details: incubation time: 72 h
How it was run: as §3

DU-4475 [14] = test: as above; details: incubation time: 72 h
How it was run: as §3

HCC1143 = test: as above; details: incubation time: 72 h
How it was run: as §3

HCC1599 = test: as above; details: incubation time: 72 h
How it was run: as §3

HCC1937 = test: as above; details: incubation time: 72 h
How it was run: as §3

HDQ-P1 [15] = test: as above; details: incubation time: 72 h
How it was run: as §3

Hs578T = test: as above; details: incubation time: 72 h
How it was run: as §3

MCF-10A = test: as above; details: incubation time: 72 h
How it was run: as §3

MDA-MB-231 = test: as above; details: incubation time: 72 h
How it was run: as §3

MDA-MB-436 = test: as above; details: incubation time: 72 h
How it was run: as §3

MDA-MB-453 [16] = test: as above; details: incubation time: 72 h
How it was run: as §3

MDA-MB-468 [17] = test: as above; details: incubation time: 72 h
How it was run: as §3

MFM-223 = test: as above; details: incubation time: 72 h
How it was run: as §3

SK-BR-3 = test: as above; details: incubation time: 72 h
How it was run: as §3

Row | SMILES | normalised viability (CAL-148 [2]) | normalised viability (CAL-51 [3]) | normalised viability (CAL-85-1 [4]) | normalised viability (DU-4475 [5]) | normalised viability (HDQ-P1 [6]) | normalised viability (MDA-MB-453 [7]) | other results
1 | Cc1ccc(C(=O)N(CCCN)[C@@H](c2oc3cc(Cl)ccc3c(=O)c2Cc2ccccc2)C(C)C)cc1 |  |  |  |  |  |  | EC50, CellTiter-Glo (CAL-51 [1]): 0.24 nM
2 | Clc1ccc(Nc2nnc(Cc3ccncc3)c3ccccc23)cc1 [Vatalanib] (10000 nM) | 84.5% | 99.4% | 83.2% | 102% | 90.6% | 91.1% | 
3 | CO[C@H]1/C=C\C=C(/C)C(=O)NC2=CC(=O)C(NCCN(C)C)=C(C[C@@H](C)C[C@H](OC)[C@H](O)[C@@H](C)/C=C(\C)[C@@H]1OC(N)=O)C2=O [Alvespimycin] |  |  |  |  |  |  | EC50, CellTiter-Glo (BT-474 [8]): 48.8 nM; EC50, CellTiter-Glo (CAL-51 [1]): 48 nM; EC50, CellTiter-Glo (MDA-MB-468 [9]): 32 nM
4 | Cn1c(Nc2ccc(C(F)(F)F)cc2)nc2cc(Oc3ccnc(-c4ncc(C(F)(F)F)[nH]4)c3)ccc21 [RAF265] |  |  |  |  |  |  | EC50, CellTiter-Glo (BT-474 [8]): 692 nM; EC50, CellTiter-Glo (MDA-MB-468 [9]): 142 nM
5 | O=C1CCC(N2C(=O)c3ccccc3C2=O)C(=O)N1 (centres undefined) [Thalidomide] (10000 nM) | 106% | 90.6% | 104% | 97.5% | 105% | 102% | 
6 | COc1cc([C@@H]2c3cc4c(cc3[C@@H](O[C@@H]3O[C@@H]5CO[C@@H](C)O[C@H]5[C@H](O)[C@H]3O)[C@H]3COC(=O)[C@H]23)OCO4)cc(OC)c1O [Etoposide] |  |  |  |  |  |  | EC50, CellTiter-Glo (BT-474 [8]): 2810 nM; EC50, CellTiter-Glo (CAL-51 [1]): 1090 nM; EC50, CellTiter-Glo (MDA-MB-468 [9]): 1730 nM
7 | Cn1c(Nc2ccc(C(F)(F)F)cc2)nc2cc(Oc3ccnc(-c4ncc(C(F)(F)F)[nH]4)c3)ccc21 [RAF265] (1000 nM) | 64.1% | 48% | 47.2% | 42.3% | 34% | 89.2% | 
8 | C=C(c1ccc(C(=O)O)cc1)c1cc2c(cc1C)C(C)(C)CCC2(C)C [Bexarotene] (10000 nM) | 79.8% | 90.2% | 95.1% | 116% | 103% | 86.7% | 
9 | CCC1(c2ccc(N)cc2)CCC(=O)NC1=O (centres undefined) [Aminoglutethimide] (10000 nM) | 112% | 85.2% | 106% | 97.9% | 120% | 81.6% | 
10 | CS(=O)(=O)c1ccc(C2=C(c3ccccc3)C(=O)OC2)cc1 [Rofecoxib] |  |  |  |  |  |  | EC50, CellTiter-Glo (CAL-51 [1]): > 10000 nM
11 | Oc1nc(-c2ccc(C(F)(F)F)cc2)nc2c1CSCC2 [XAV-939] |  |  |  |  |  |  | EC50, CellTiter-Glo (BT-474 [8]): 350 nM; EC50, CellTiter-Glo (CAL-51 [1]): 12.6 nM
12 | N#CCNC(=O)c1ccc(-c2ccnc(Nc3ccc(N4CCOCC4)cc3)n2)cc1 [Momelotinib] |  |  |  |  |  |  | EC50, CellTiter-Glo (BT-474 [8]): 5780 nM; EC50, CellTiter-Glo (MDA-MB-468 [9]): 3480 nM
13 | Cc1ccc(-n2nc(C(C)(C)C)cc2NC(=O)Nc2ccc(OCCN3CCOCC3)c3ccccc23)cc1 [Doramapimod] |  |  |  |  |  |  | EC50, CellTiter-Glo (MDA-MB-468 [9]): 937 nM
14 | CO[C@H]1/C=C\C=C(/C)C(=O)NC2=CC(=O)C(NCCN(C)C)=C(C[C@@H](C)C[C@H](OC)[C@H](O)[C@@H](C)/C=C(\C)[C@@H]1OC(N)=O)C2=O [Alvespimycin] (1000 nM) | 4.23% | 6.39% | 18.6% | -0.26% | 29.6% | 3.62% | 
15 | CNCc1ccc(-c2[nH]c3cc(F)cc4c3c2CCNC4=O)cc1 [Rucaparib] |  |  |  |  |  |  | EC50, CellTiter-Glo (MDA-MB-468 [9]): 1710 nM
16 | CN[C@@H]1C[C@H]2O[C@@](C)([C@@H]1OC)n1c3ccccc3c3c4c(c5c6ccccc6n2c5c31)C(=O)N[C@H]4O [UCN-01] (10000 nM) | 3.64% | 5.97% | 1.96% | 2.14% | 2.76% | 2.09% | 
17 | CC1(C)NC(=O)N(c2ccc([N+](=O)[O-])c(C(F)(F)F)c2)C1=O [Nilutamide] |  |  |  |  |  |  | EC50, CellTiter-Glo (CAL-51 [1]): 724 nM

Row | SMILES | normalised viability (CAL-148 [2]) | normalised viability (CAL-51 [3]) | normalised viability (CAL-85-1 [4]) | normalised viability (DU-4475 [5]) | normalised viability (HDQ-P1 [6]) | normalised viability (MDA-MB-453 [7]) | other results
18 | COc1cc2nccc(Oc3ccc(NC(=O)C4(C(=O)Nc5ccc(F)cc5)CC4)cc3)c2cc1OC [Cabozantinib] (1000 nM) | 78.7% | 86.5% | 45.1% | 108% | 88.5% | 37.1% | 
19 | CNCc1ccc(-c2[nH]c3cc(F)cc4c3c2CCNC4=O)cc1 [Rucaparib] (10000 nM) | 37.5% | 40.5% | 45.8% | 46.2% | 106% | 32.1% | 
20 | C#Cc1cccc(Nc2ncnc3cc(OCCOC)c(OCCOC)cc23)c1 [Erlotinib] |  |  |  |  |  |  | EC50, CellTiter-Glo (CAL-51 [1]): 1130 nM
21 | C[C@@H](Oc1cc(-c2cnn(C3CCNCC3)c2)cnc1N)c1c(Cl)ccc(F)c1Cl [Crizotinib] |  |  |  |  |  |  | EC50, CellTiter-Glo (MDA-MB-468 [9]): > 1000 nM
22 | N[C@@H](CSC(c1ccccc1)(c1ccccc1)c1ccccc1)C(=O)O [S-trityl-L-cysteine] (40000 nM) | 114% | 87% | 87.5% | 92.2% | 65% | 83.2% | 
23 | C#Cc1cccc(Nc2ncnc3cc(OCCOC)c(OCCOC)cc23)c1 [Erlotinib] (10000 nM) | 24.7% | 50.9% | 47.7% | 84.5% | 68% | 55.1% | 
24 | Cn1c(CCCC(=O)O)nc2cc(N(CCCl)CCCl)ccc21 [Bendamustine] (10000 nM) | 92.4% | 99% | 92.9% | 78.6% | 113% | 121% | 
25 | COc1cc2ncnc(Nc3ccc(F)c(Cl)c3)c2cc1NC(=O)/C=C/CN1CCCCC1 [Dacomitinib] |  |  |  |  |  |  | EC50, CellTiter-Glo (BT-474 [8]): > 1000 nM; EC50, CellTiter-Glo (MDA-MB-468 [9]): 179 nM
26 | Cc1ccc(-n2nc(C(C)(C)C)cc2NC(=O)Nc2ccc(OCCN3CCOCC3)c3ccccc23)cc1 [Doramapimod] (10000 nM) | 111% | 86.8% | 72.6% | 102% | 81% | 62.7% | 
27 | O=P1(NCCCl)OCCCN1CCCl (centres undefined) [Ifosfamide] |  |  |  |  |  |  | EC50, CellTiter-Glo (BT-474 [8]): > 10000 nM
28 | Cc1ccc(C(=O)Nc2ccc(CN3CCN(C)CC3)c(C(F)(F)F)c2)cc1C#Cc1cnc2cccnn12 [Ponatinib] (1000 nM) | 77.5% | 42% | 50.1% | 50.2% | 21.9% | 38.4% | 
29 | O=P1(NCCCl)OCCCN1CCCl (centres undefined) [Ifosfamide] (10000 nM) | 101% | 107% | 88.4% | 85.1% | 125% | 106% | 
30 | CC1(C)NC(=O)N(c2ccc([N+](=O)[O-])c(C(F)(F)F)c2)C1=O [Nilutamide] (10000 nM) | 99.8% | 89.4% | 90.7% | 97.4% | 136% | 106% | 
31 | CCC1=C[C@@H]2CN(C1)Cc1c([nH]c3ccccc13)[C@@](C(=O)OC)(c1cc3c(cc1OC)N(C)[C@H]1[C@@](O)(C(=O)OC)[C@H](OC(C)=O)[C@]4(CC)C=CCN5CC[C@]31[C@@H]54)C2 [Vinorelbine] (1000 nM) |  |  |  |  |  |  | normalised response (BT-474 [10]): 55.7%; normalised response (BT-549): 41.8%; normalised response (CAL-120): 66.9%; normalised response (CAL-148 [11]): 43.2%; normalised response (CAL-51 [12]): 26.7%; normalised response (CAL-85-1 [13]): 39%; normalised response (DU-4475 [14]): 69.9%; normalised response (HCC1143): 56.9%; normalised response (HCC1599): 26%; normalised response (HCC1937): 73.8%; normalised response (HDQ-P1 [15]): 76.2%; normalised response (Hs578T): 35.5%; normalised response (MCF-10A): 63%; normalised response (MDA-MB-231): 43.5%; normalised response (MDA-MB-436): 24.7%; normalised response (MDA-MB-453 [16]): 56.1%; normalised response (MDA-MB-468 [17]): 30.3%; normalised response (MFM-223): 39.3%; normalised response (SK-BR-3): 16.9%
32 | CN(C)/N=N/c1[nH]cnc1C(N)=O [Dacarbazine] (10000 nM) | 96.2% | 91.2% | 87.5% | 103% | 104% | 105% | 
33 | Oc1nc(-c2ccc(C(F)(F)F)cc2)nc2c1CSCC2 [XAV-939] (10000 nM) | 76.9% | 89.2% | 82.3% | 100% | 76.2% | 71.5% | 
